Numbers after ± are expanded uncertainties.
Test: xn = mol fraction of the nth substance listed
Settings: Liquid; for viscosity: Capillary tube (Ostwald / Ubbelohde) method; for mass density: Vibrating tube method

CCO [ethanol] + O
Settings	mass density, 10000 kPa [kg/m3]	mass density, 20000 kPa [kg/m3]	mass density, 30000 kPa [kg/m3]	mass density, 40000 kPa [kg/m3]	viscosity, 10000 kPa [mPa·s]	viscosity, 20000 kPa [mPa·s]	viscosity, 30000 kPa [mPa·s]	viscosity, 40000 kPa [mPa·s]
350.7 K, x1 = 0.1	933.68 ± 11	936.77 ± 11	941.46 ± 11	945.15 ± 11	0.537 ± 0.016	0.546 ± 0.016	0.556 ± 0.016	0.578 ± 0.017
350.7 K, x1 = 0.2	895.78 ± 11	900.9 ± 11	905.65 ± 11	911.39 ± 11	0.625 ± 0.014	0.638 ± 0.015	0.651 ± 0.016	0.681 ± 0.016
350.7 K, x1 = 0.3	863.89 ± 10	870.14 ± 10	876.58 ± 10	881.9 ± 10	0.632 ± 0.014	0.661 ± 0.014	0.684 ± 0.015	0.726 ± 0.015
350.7 K, x1 = 0.4	838.33 ± 10	845.24 ± 10	852.53 ± 10	859.05 ± 10	0.64 ± 0.014	0.669 ± 0.014	0.691 ± 0.015	0.737 ± 0.015
350.7 K, x1 = 0.6	798.55 ± 10	807.87 ± 10	815.61 ± 10	822.93 ± 10	0.595 ± 0.014	0.624 ± 0.014	0.654 ± 0.015	0.695 ± 0.015
350.7 K, x1 = 0.8	768.37 ± 10	778.79 ± 10	787.77 ± 10	795.87 ± 10	0.531 ± 0.014	0.57 ± 0.014	0.601 ± 0.014	0.643 ± 0.015
350.7 K, x1 = 1	745.63 ± 10	757.47 ± 10	766.87 ± 10	775.75 ± 10	0.461 ± 0.012	0.518 ± 0.013	0.555 ± 0.013	0.59 ± 0.013
373.2 K, x1 = 0.1	913.36 ± 11	918.8 ± 11	924.46 ± 11	928.74 ± 11	0.401 ± 0.014	0.397 ± 0.014	0.403 ± 0.014	0.421 ± 0.015
373.2 K, x1 = 0.2	874.72 ± 11	880.64 ± 11	886.74 ± 11	892.24 ± 11	0.448 ± 0.014	0.449 ± 0.015	0.459 ± 0.015	0.483 ± 0.015
373.2 K, x1 = 0.3	842.36 ± 10	849.56 ± 10	856.1 ± 10	862.39 ± 10	0.461 ± 0.014	0.473 ± 0.014	0.484 ± 0.015	0.515 ± 0.015
373.2 K, x1 = 0.4	815.79 ± 10	823.45 ± 10	830.81 ± 10	837.9 ± 10	0.462 ± 0.014	0.477 ± 0.014	0.489 ± 0.015	0.509 ± 0.015
373.2 K, x1 = 0.6	776.56 ± 10	785.48 ± 10	794.06 ± 10	801.93 ± 10	0.434 ± 0.014	0.451 ± 0.014	0.461 ± 0.014	0.489 ± 0.015
373.2 K, x1 = 0.8	747.1 ± 10	757.25 ± 10	767.44 ± 10	776.49 ± 10	0.381 ± 0.013	0.406 ± 0.013	0.439 ± 0.014	0.456 ± 0.014
373.2 K, x1 = 1	726.87 ± 10	738.25 ± 10	750.02 ± 10	757.87 ± 10	0.364 ± 0.012	0.382 ± 0.013	0.404 ± 0.013	0.443 ± 0.013
476.2 K, x1 = 0.1	802.54 ± 11	810.76 ± 11	819.25 ± 11	827.58 ± 11	0.148 ± 0.011	0.152 ± 0.011	0.159 ± 0.011	0.164 ± 0.011
476.2 K, x1 = 0.2	752.52 ± 11	764.89 ± 11	776.24 ± 11	786.01 ± 11	0.151 ± 0.011	0.157 ± 0.011	0.164 ± 0.011	0.168 ± 0.012
476.2 K, x1 = 0.3	713.85 ± 11	728.6 ± 11	743.62 ± 10	754.08 ± 10	0.144 ± 0.012	0.153 ± 0.012	0.164 ± 0.012	0.172 ± 0.012
476.2 K, x1 = 0.4	682.37 ± 10	700.31 ± 10	717.25 ± 10	730.44 ± 10	0.139 ± 0.012	0.148 ± 0.012	0.159 ± 0.012	0.167 ± 0.012
476.2 K, x1 = 0.6	636.05 ± 10	658.71 ± 10	679.71 ± 10	694.35 ± 10	0.125 ± 0.012	0.138 ± 0.012	0.15 ± 0.012	0.161 ± 0.012
476.2 K, x1 = 0.8	605.36 ± 10	633.16 ± 10	656.43 ± 10	671.76 ± 10	0.113 ± 0.011	0.129 ± 0.011	0.144 ± 0.011	0.155 ± 0.011
476.2 K, x1 = 1	582.85 ± 10	613.37 ± 10	638.82 ± 10	656.07 ± 10	0.107 ± 0.011	0.123 ± 0.011	0.138 ± 0.011	0.151 ± 0.011

From the NIST ThermoML archive (doi:10.1016/j.fluid.2015.07.012)
